{"source": "patent US8003602B2", "about": "(priority 2006, dated 2011)", "key": {"E. faecium ATCC 51559": {"test_system": "E. faecium ATCC 51559", "type": "cell-based, Enterococcus faecium", "description": "(§1) The in-vitro potency was established by minimum inhibitory concentration (MIC) determinations of the compound PM181104 against bacterial strains, by using the Macro-broth dilution method as per National Committee for Clinical Laboratory Standards (2000) guidelines [Journal of Anti-microbial Chemotherapy, 2002, 50, 125-128 (Cross Reference 8: Methods for Dilution Antimicrobial Susceptibility Tests for Bacteria that Grow Aerobically-Fifth Edition: Approved Standard M7-A5. NCCLS, Wayne, Pa., USA)]. Unless stated otherwise, Mueller-Hinton broth was used as nutrient medium for the assay. Linezolid (manufactured by Glenmark Pharma Ltd; Batch no: K2005028) was used as known standard in all in-vitro experiments. For preparation of the stock solution the compound PM181104 was dissolved in chloroform (5% of the total required volume) and diluted using methanol (95% of the total required volume)."}, "E. faecium (R-2)": {"test_system": "E. faecium (R-2)", "type": "cell-based, Enterococcus faecium", "settings": "E. faecium R-2 (VRE)", "description": "as §1"}, "E. faecalis ATCC 51575": {"test_system": "E. faecalis ATCC 51575", "type": "cell-based", "description": "as §1"}, "E. faecalis, ATCC 51299": {"test_system": "E. faecalis, ATCC 51299", "type": "cell-based", "description": "as §1"}, "[1]": {"test_system": "Staphylococcus aureus subsp. aureus ATCC 33591", "type": "cell-based", "settings": "S. aureus MRSA ATCC 33591", "description": "as §1"}, "B. subtilis ATCC 6633": {"test_system": "B. subtilis ATCC 6633", "assay": "MIC, Macro-broth dilution method", "type": "cell-based, Bacillus subtilis", "description": "as §1"}, "B. subtilis": {"test_system": "B. subtilis", "assay": "MIC, Macro-broth dilution method", "type": "cell-based, Bacillus subtilis", "description": "as §1"}, "[2]": {"test_system": "Enterococcus faecium ATCC 47077", "assay": "Kidney infection model", "type": "in vivo, Balb/C mice", "settings": "5 mg/kg intravenously at 4, 24 and 48 hours post-infection, kidneys harvested at 72 hours", "description": "(§2) The in-vivo potency was established by protection dose (PD) determinations of the compound PM181104 for its antibiotic activity in three animal models using either male or female Balb/C mice.\n(§3) The models used were the general purpose efficacy testing models and organ/tissue specific efficacy testing models. The general purpose efficacy testing models used were systemic infection model (septicemia), and localized infection model (neutropenic thigh model). The Organ/Tissue specific infection models used for efficacy testing were kidney, lung infection, and skin abscess model.\n0.2 ml of 2% λ Carrageenan was administered intravenously to Balb/C mice 7 days prior to infection. Overnight grown log phase culture of Enterococcus faecium ATCC 47077 adjusted to approximately 10^9 cfu/ml, was injected intravenously to the mice at a volume of 0.2 ml. PM181104 solution, prepared in cremophor-ethanol formulation as described in example 14, was administered intravenously to the mice at 4 hours, 24 hours and 48 hours post-infection. At 72 hours post infection, the animals were sacrificed and kidneys were harvested to determine the bacterial load. […] Linezolid (manufactured by Glenmark Pharma Ltd; Batch no: K2005028) at 25 mg/kg and Vancomycin hydrochloride (manufactured by HiMedia; Catalogue no: RM217-500 mg; Lot no: 06-0350) at 150 mg/kg dose."}, "E. faecalis ATCC BAA 472": {"test_system": "E. faecalis ATCC BAA 472", "assay": "MIC, Macro-broth dilution method", "type": "cell-based", "description": "as §1"}, "E. faecium (VR-1)": {"test_system": "E. faecium (VR-1)", "assay": "MIC, Macro-broth dilution method", "type": "cell-based, Enterococcus faecium", "description": "as §1"}, "E. faecium D 18F": {"test_system": "E. faecium D 18F", "assay": "MIC, Macro-broth dilution method", "type": "cell-based, Enterococcus faecium", "description": "as §1"}, "E. faecium 4045H": {"test_system": "E. faecium 4045H", "assay": "MIC, Macro-broth dilution method", "type": "cell-based, Enterococcus faecium", "description": "as §1"}, "E. faecium (O2-D3IP1)": {"test_system": "E. faecium (O2-D3IP1)", "assay": "MIC, Macro-broth dilution method", "type": "cell-based, Enterococcus faecium", "description": "as §1"}, "E. faecium D-59": {"test_system": "E. faecium D-59", "assay": "MIC, Macro-broth dilution method", "type": "cell-based, Enterococcus faecium", "description": "as §1"}, "[3]": {"test_system": "methicillin resistant Staphylococcus aureus E710 (MRSA)", "assay": "Systemic infection model (septicemia)", "type": "in vivo, Balb/C mice", "settings": "mice infected intraperitoneally with MRSA E710, administered intravenously immediately after infection", "description": "as §2, §3\nThe animals were infected intraperitoneally with ˜10^8 to 10^9 cfu of an overnight grown culture of methicillin resistant Staphylococcus aureus E710 (MRSA), suspended in normal saline (0.85% sodium chloride). PM181104 solution was prepared in cremophor-ethanol formulation as described in example 14. The solution was administered intravenously at 5 mg, 2.5 mg and 1.25 mg/kg doses, immediately after infection. Each experimental group consisted of ten animals."}, "S. aureus E-710": {"test_system": "S. aureus E-710", "assay": "Lung infection model", "type": "in vivo, Balb/C mice", "settings": "5 mg/kg intravenously at 24 and 36 hours post infection, lungs collected at 48 hours", "description": "as §2, §3\nBalb/C mice were rendered neutropenic by intraperitoneally administering 200 mg/kg cyclophosphamide four days and two days prior to infection. On the day of infection, the mice were anesthetized and infected with S. aureus E-710 log-phase culture suspension having bacterial density of approximately 10^6 to 10^7 cfu/ml. 24 and 36 hours post infection the first and second respective dose of drug was administered intravenously. 48 hours post infection, the animals were humanely euthanized and their lungs were aseptically collected to determine the viable count of bacteria. In this model, PM181104 was tested at 5 mg/kg dose prepared in cremophor-ethanol formulation as described in example 14. Two standard antibiotics viz. Linezolid (80 mg/kg single dose at 24 hours post infection) and Vancomycin (110 mg/kg, two doses at 24 and 48 hours post infection) were used as positive controls."}, "S. epidermidis Pat 01 IV": {"test_system": "S. epidermidis Pat 01 IV", "assay": "MIC, Macro-broth dilution method", "type": "cell-based, Staphylococcus epidermidis", "description": "as §1"}, "S. epidermidis 823": {"test_system": "S. epidermidis 823", "assay": "MIC, Macro-broth dilution method", "type": "cell-based, Staphylococcus epidermidis", "description": "as §1"}, "[4]": {"test_system": "S. epidermidis 6493II(2)W", "assay": "MIC, Macro-broth dilution method", "type": "cell-based, Staphylococcus epidermidis", "description": "as §1"}, "S. epidermidis 5744IW": {"test_system": "S. epidermidis 5744IW", "assay": "MIC, Macro-broth dilution method", "type": "cell-based, Staphylococcus epidermidis", "description": "as §1"}, "S. epidermidis 32965": {"test_system": "S. epidermidis 32965", "assay": "MIC, Macro-broth dilution method", "type": "cell-based, Staphylococcus epidermidis", "description": "as §1"}, "S. epidermidis 10221II W": {"test_system": "S. epidermidis 10221II W", "assay": "MIC, Macro-broth dilution method", "type": "cell-based, Staphylococcus epidermidis", "description": "as §1"}, "S. epidermidis 6098": {"test_system": "S. epidermidis 6098", "assay": "MIC, Macro-broth dilution method", "type": "cell-based, Staphylococcus epidermidis", "description": "as §1"}, "B. cereus": {"test_system": "B. cereus", "assay": "MIC, Macro-broth dilution method", "type": "cell-based, Bacillus cereus", "description": "as §1"}}, "data": [{"smiles": "C=C(NC(=O)C(=C)NC(=O)C1CCCN1C(=O)c1nc(-c2ccc(-c3nc(C(=O)NC(=C)C(=O)NC(C)C(N)=O)cs3)c(-c3csc(C4Cc5nc(cs5)C(=O)NC(Cc5ccccc5)C5=NC(CS5)C(=O)NC(Cc5ccc(O)cc5)C(=O)N5CCCC5c5nc(cs5)C(=O)N4)n3)n2)oc1C)C(N)=O", "note": "(stereo not shown) [PM181104]", "values": [{"measurement": "MIC", "setting": "E. faecium ATCC 51559", "result": 0.00781, "unit": "µg/mL"}, {"measurement": "MIC", "setting": "E. faecium (R-2)", "result": 0.00781, "unit": "µg/mL"}, {"measurement": "MIC", "setting": "E. faecalis ATCC 51575", "result": 0.03125, "unit": "µg/mL"}, {"measurement": "MIC", "setting": "E. faecalis, ATCC 51299", "result": 0.01563, "unit": "µg/mL"}, {"measurement": "MIC", "setting": "[1]", "result": 0.03125, "unit": "µg/mL"}, {"measurement": "MIC", "setting": "B. subtilis ATCC 6633", "result": 0.00781, "unit": "µg/mL"}, {"measurement": "MIC", "setting": "B. subtilis", "result": 0.01563, "unit": "µg/mL"}, {"measurement": "decrease in bacterial count in kidneys", "setting": "[2]", "result": "approximately 1 log"}, {"measurement": "MIC", "setting": "E. faecalis ATCC BAA 472", "result": 0.01563, "unit": "µg/mL"}, {"measurement": "MIC", "setting": "E. faecium (VR-1)", "result": 0.00781, "unit": "µg/mL"}, {"measurement": "MIC", "setting": "E. faecium D 18F", "result": 0.00781, "unit": "µg/mL"}, {"measurement": "MIC", "setting": "E. faecium 4045H", "result": 0.00781, "unit": "µg/mL"}, {"measurement": "MIC", "setting": "E. faecium (O2-D3IP1)", "result": 0.00391, "unit": "µg/mL"}, {"measurement": "MIC", "setting": "E. faecium D-59", "result": 0.00781, "unit": "µg/mL"}, {"measurement": "PD100", "setting": "[3]", "result": 5, "unit": "mg/kg"}, {"measurement": "activity profile in lung infection", "setting": "S. aureus E-710", "result": "bacteriostatic activity"}, {"measurement": "difference in the bacterial count in the lungs as compared to untreated control animals", "setting": "S. aureus E-710", "result": "approximately 2 log"}, {"measurement": "MIC", "setting": "S. epidermidis Pat 01 IV", "result": 0.0625, "unit": "µg/mL"}, {"measurement": "MIC", "setting": "S. epidermidis 823", "result": 0.03125, "unit": "µg/mL"}, {"measurement": "MIC", "setting": "[4]", "result": 0.0625, "unit": "µg/mL"}, {"measurement": "MIC", "setting": "S. epidermidis 5744IW", "result": 0.01563, "unit": "µg/mL"}, {"measurement": "MIC", "setting": "S. epidermidis 32965", "result": 0.03125, "unit": "µg/mL"}, {"measurement": "MIC", "setting": "S. epidermidis 10221II W", "result": 0.00781, "unit": "µg/mL"}, {"measurement": "MIC", "setting": "S. epidermidis 6098", "result": 0.0625, "unit": "µg/mL"}, {"measurement": "MIC", "setting": "B. cereus", "result": 0.00391, "unit": "µg/mL"}]}]}
